Measurements published in patent US9920030B2 (priority 2006, dated 2018).
Where two headings read alike, the source gives them in different places.

Legend:
Type in all cases: in vivo
[1] = system: Phytophthora infestans (the causal agent of tomato late blight); assay: whole plant or invertebrate
[2] = system: Phytophthora infestans (the causal agent of tomato late blight); assay: whole plant or invertebrate; remark: listed apart in the source
[3] = system: Plasmopara vilicola (the causal agent of grape downy mildew); assay: Test A: grape downy mildew, test suspension sprayed on grape seedlings after inoculation, visual disease rating
Procedure, shortened: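 Curative spray: spores applied first, plants kept 24 h in saturated air at 20 °C and dried before treatment, then 5 days at 20 °C plus 24 h saturated. Suspension: acetone (3% of volume) in 1:1 acetone/water, 250 ppm Trem 014, sprayed to run-off (200 ppm ≈ 500 g/ha); visual 0–100 control rating.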

[4] = Phytophthora infestans, 144 h, read-out: Percent Disease Control, Test B
[5] = Phytophthora infestans, 96 h, read-out: Percent Disease Control, Test C
[6] = Plasmopara, 144 h, * tested at 40 ppm, read-out: Percent Disease Control, Test A
[7] = compounds without asterisk (application rate not given), 100 = 100% disease control, 0 = no control relative to the controls

SMILES | Percent Disease Control, Test B ([1]; * tested at 40 ppm) [%] | Percent Disease Control, Test C ([2]; * tested at 40 ppm) [%] | Percent Disease Control, Test A ([3]; * tested at 40 ppm) [%] | also measured
Cc1cc(C(F)(F)F)nn1CC(=O)N1CCC(c2nc(C3=NOC(c4ccc(-c5ccccc5)cc4)C3)cs2)CC1 (stereo not shown) [Compound 106] | 85 | 24 | 80 | –
O=C(Cn1nc(C(F)(F)F)cc1Cl)N1CCC(c2nc(C3=NOC(c4ccccc4)C3)cs2)CC1 (stereo not shown) [Compound 107, 2-[5-chloro-3-(trifluoromethyl)-1H-pyrazol-1-yl]-1-[4-[4-(4,5-dihydro-5-phenyl-3-isoxazolyl)-2-thiazolyl]-1-piperidinyl]ethanone] | – | – | – | pest or weed control at 40 ppm [1, 4]: 100%; pest or weed control at 40 ppm [2, 5]: 99%; pest or weed control at 40 ppm [3, 6]: 100%
Cc1cc(C(F)(F)F)nn1CC(=O)N1CCC(c2nc(C3=NC(c4ccccc4)C(c4ccccc4)N3)cs2)CC1 (stereo not shown) [Compound 108] | – | – | – | Percent Disease Control, Test B [1, 7]: 58%; Percent Disease Control, Test C [2, 7]: 0%; Percent Disease Control, Test A [3, 7]: 0%
Cc1cc(C(F)(F)F)nn1CC(=O)N1CCC(c2nc(C3=NOC4(CCCc5sccc54)C3)cs2)CC1 (stereo not shown) [Compound 109] | 100 | 98 | 100 | –
Cc1cc(C(F)(F)F)nn1CC(=O)N1CCC(c2nc(C3=NOC(c4ccc(O)cc4)C3)cs2)CC1 (stereo not shown) [Compound 110] | 100 | 99 | 97 | –
Cc1cc(C(F)(F)F)nn1CC(=O)N1CCC(c2nc(C3=NOC(c4cnccn4)C3)cs2)CC1 (stereo not shown) [Compound 111] | 100 | 97 | 97 | –
Cc1cc(C(F)(F)F)nn1CC(=O)N1CCC(c2nc(C3=NOC(CN4Cc5cccc(Cl)c5S4(=O)=O)C3)cs2)CC1 (stereo not shown) [Compound 112] | 100 | 68 | 76 | –
CC(=O)Oc1ccc(C2CC(c3csc(C4CCN(C(=O)Cn5nc(C(F)(F)F)cc5C)CC4)n3)=NO2)cc1 (stereo not shown) [Compound 113] | 100 | 99 | 99 | –
Cc1cc(C(F)(F)F)nn1CC(=O)N1CCC(c2nc(C3=NOC(c4ccccc4C(F)(F)F)C3)cs2)CC1 (stereo not shown) [Compound 114] | 100 | 99 | 100 | –
Cc1cc(C(F)(F)F)nn1CC(=O)N1CCC(c2nc(C3=NOC(c4cccc(C(F)(F)F)c4)C3)cs2)CC1 (stereo not shown) [Compound 115] | 100 | 99 | 100 | –
COC(=O)CC1CC(c2csc(C3CCN(C(=O)Cn4nc(C(F)(F)F)cc4C)CC3)n2)=NO1 (stereo not shown) [Compound 116] | – | – | – | Percent Disease Control, Test B [1, 7]: 100%; Percent Disease Control, Test C [2, 7]: 79%; Percent Disease Control, Test A [3, 7]: 46%
Cc1cc(C(F)(F)F)nn1CC(=O)N1CCC(c2nc(C3=NOC(S(=O)(=O)c4ccccc4)C3)cs2)CC1 (stereo not shown) [Compound 117] | 100 | 99 | 93 | –
Cc1cc(C(F)(F)F)nn1CC(=O)N1CCC(c2nc(C3=NC[C@@H](c4ccccc4)N3C)cs2)CC1 [Compound 118] | 87 | 16 | 0 | –
Cc1cc(C(F)(F)F)nn1CC(=O)N1CCC(c2nc(C3=N[C@@H](c4ccccc4)[C@@H](c4ccccc4)N3)cs2)CC1 [Compound 119] | – | – | – | Percent Disease Control, Test B [1, 7]: 82%; Percent Disease Control, Test C [2, 7]: 0%; Percent Disease Control, Test A [3, 7]: 0%
Cc1cc(C(F)(F)F)nn1CC(=O)N1CCC(c2nc(-c3ccc(Cl)cc3)cs2)CC1 [Compound 120] | – | – | – | Percent Disease Control, Test B [1, 7]: 88%; Percent Disease Control, Test C [2, 7]: 0%; Percent Disease Control, Test A [3, 7]: 99%
Cc1cc(C(F)(F)F)nn1CC(=O)N1CCC(c2nc(-c3ccccc3Cl)cs2)CC1 [Compound 121] | – | – | – | Percent Disease Control, Test B [1, 7]: 47%; Percent Disease Control, Test C [2, 7]: 0%; Percent Disease Control, Test A [3, 7]: 83%
Cc1cc(C(F)(F)F)nn1CC(=O)N1CCC(c2nc(-c3ccc(C(F)(F)F)cc3)cs2)CC1 [Compound 122] | – | – | – | Percent Disease Control, Test B [1, 7]: 46%; Percent Disease Control, Test C [2, 7]: 0%; Percent Disease Control, Test A [3, 7]: 99%
Cc1cc(C(F)(F)F)nn1CC(=O)N1CCC(c2nc(-c3cccc(Cl)c3)cs2)CC1 [Compound 123] | – | – | – | Percent Disease Control, Test B [1, 7]: 68%; Percent Disease Control, Test C [2, 7]: 0%; Percent Disease Control, Test A [3, 7]: 95%

SMILES | Percent Disease Control, Test B ([1]; * tested at 40 ppm) [%] | Percent Disease Control, Test C ([2]; * tested at 40 ppm) [%] | Percent Disease Control, Test A ([3]; * tested at 40 ppm) [%] | also measured
Cc1cc(C(F)(F)F)nn1CC(=O)N1CCC(c2nc(-c3cccnc3)cs2)CC1 [Compound 124] | – | – | – | Percent Disease Control, Test B [1, 7]: 98%; Percent Disease Control, Test C [2, 7]: 26%; Percent Disease Control, Test A [3, 7]: 8%
Cc1cc(C(F)(F)F)nn1CC(=O)N1CCC(c2nc(C3=NOC(c4ccc(O)c(O)c4)C3)cs2)CC1 (stereo not shown) [Compound 125] | – | – | – | Percent Disease Control, Test B [1, 7]: 53%; Percent Disease Control, Test C [2, 7]: 0%; Percent Disease Control, Test A [3, 7]: 31%
O=C(Cn1nc(C(F)(F)F)cc1Br)N1CCC(c2nc(C3=NOC(c4ccccc4)C3)cs2)CC1 (stereo not shown) [Compound 126, 2-[5-bromo-3-(trifluoromethyl)-1H-pyrazol-1-yl]-1-[4-[4-(4,5-dihydro-5-phenyl-3-isoxazoly)-2-thiazolyl]-1-piperidinyl]ethanone] | – | – | – | Percent Disease Control, Test B [1, 7]: 100%; Percent Disease Control, Test C [2, 7]: 99%; Percent Disease Control, Test A [3, 7]: 100%; Percent Disease Control, Test A ([3]; compounds without asterisk (application rate not given), 100 = 100% disease control, 0 = no control relative to the controls, listed as 11): 99%
Cc1cc(C(F)(F)F)n(CC(=O)N2CCC(c3nc(C4=NOC(c5ccccc5)C4)cs3)CC2)n1 (stereo not shown) [Compound 128, 1-[4-[4-(4,5-dihydro-5-phenyl-3-isoxazolyl)-2-thiazolyl]-1-piperidinyl]-2-[3-methyl-5-(trifluoromethyl)-1H-pyrazol-1-yl]ethanone] | – | – | – | pest or weed control at 40 ppm [1, 4]: 100%; pest or weed control at 40 ppm [2, 5]: 99%; pest or weed control at 40 ppm [3, 6]: 100%
Cc1cc(C(F)(F)F)nn1CC(=S)N1CCC(c2nc(C3=NOC(c4ccccc4)C3)cs2)CC1 (stereo not shown) [Compound 130, 1-[4-[4-(4,5-dihydro-5-phenyl-3-isoxazolyl)-2-thiazolyl]-1-piperidinyl]-2-[5-methyl-3-(trifluoromethyl)-1H-pyrazol-1-yl]ethanethione] | – | – | – | pest or weed control at 10 µg/mL [1, 4]: 100%; pest or weed control at 10 µg/mL [2, 5]: 99%; pest or weed control at 10 µg/mL ([3]; Plasmopara, 144 h, ** tested at l0 ppm, read-out: Percent Disease Control, Test A): 100%
COc1ccccc1C1CC(c2csc(C3CCN(C(=O)Cn4nc(C(F)(F)F)cc4C)CC3)n2)=NO1 (stereo not shown) [Compound 131] | 100 | 99 | 100 | –
Cc1cc(C(F)(F)F)nn1CC(=O)N1CCC(c2nc(C3=NOC(C)(c4cc(Cl)sc4Cl)C3)cs2)CC1 (stereo not shown) [Compound 132] | 100 | 91 | 85 | –
Cc1ccc(C)c(C2CC(c3csc(C4CCN(C(=O)Cn5nc(C(F)(F)F)cc5C)CC4)n3)=NO2)c1 (stereo not shown) [Compound 133] | 100 | 99 | 100 | –
COC(=O)c1ccc(C2CC(c3csc(C4CCN(C(=O)Cn5nc(C(F)(F)F)cc5C)CC4)n3)=NO2)cc1 (stereo not shown) [Compound 134] | 100 | 66 | 90 | –
Cc1ccc(C2CC(c3csc(C4CCN(C(=O)Cn5nc(C(F)(F)F)cc5C)CC4)n3)=NO2)c(C)c1 (stereo not shown) [Compound 136] | 100 | 99 | 99 | –
Cc1cc(C(F)(F)F)nn1CC(=O)N1CCC(c2nc(C3=NOC4(CCOc5ccccc54)C3)cs2)CC1 (stereo not shown) [Compound 137, 1-[4-[4-(2,3-dihydrospiro[4H-1-benzopyran-4,5′(4′H)-isoxazol]-3′-yl)-2-thiazolyl]-1-piperidinyl]-2-[5-methyl-3-(trifluoromethyl)-1H-pyrazol-1-yl]ethanone] | – | – | – | pest or weed control at 40 ppm [1, 4]: 100%; pest or weed control at 40 ppm [2, 5]: 99%; pest or weed control at 40 ppm [3, 6]: 100%
Cc1cc(C(F)(F)F)nn1CC(=O)N1CCC(c2nc(C3=NOC4(CCC(C(C)(C)C)CC4)C3)cs2)CC1 (stereo not shown) [Compound 138] | 100 | 99 | 93 | –
Cc1cc(C(F)(F)F)nn1CC(=O)N1CCC(c2nc(C3=NOC(c4ccccc4)(c4ccccc4)C3)cs2)CC1 [Compound 139] | 98 | 87 | 87 | –
COc1ccccc1C1(C)CC(c2csc(C3CCN(C(=O)Cn4nc(C(F)(F)F)cc4C)CC3)n2)=NO1 (stereo not shown) [Compound 140] | 100 | 57 | 98 | –
COCC1(c2ccccc2)CC(c2csc(C3CCN(C(=O)Cn4nc(C(F)(F)F)cc4C)CC3)n2)=NO1 (stereo not shown) [Compound 141] | 100 | 99 | 99 | –
CSCC1(c2ccccc2)CC(c2csc(C3CCN(C(=O)Cn4nc(C(F)(F)F)cc4C)CC3)n2)=NO1 (stereo not shown) [Compound 142] | 100 | 98 | 97 | –
Cc1cc(C(F)(F)F)nn1CC(=O)N1CCC(c2nc(C3=NOC(CS(C)(=O)=O)(c4ccccc4)C3)cs2)CC1 (stereo not shown) [Compound 143] | 100 | 99 | 99 | –
